Reference: ChEMBL document CHEMBL1926626, “Design and synthesis of benzo[c,d]indolone-pyrrolobenzodiazepine conjugates as potential anticancer agents” (Bioorg Med Chem, 2012)
Blank lines part the entries; values can stand above or below the compound they belong to. Active and inactive are the calls of the source. The rule behind the calls is not given here.

Legend:
[1] = test system: Nucleic Acid; assay: Binding affinity to calf thymus DNA assessed as change in melting temperature at compound:DNA molar ratio of 1:5 after 18 hrs at 37 degC by thermal denaturation assay (RVb = 0.3 to 3.1 degC); type: nucleic-acid assay; conditions: Bos taurus
[2] = test system: HEK293; assay: Cytotoxicity activity against human HEK293 cells after 48 hrs by MTT assay; type: cell-based; conditions: hek293, 48 h
[3] = test system: COLO 205; assay: Anticancer activity against human COLO205 cells after 48 hrs by MTT assay; type: functional, cell-based; conditions: COLO 205, 48 h
[4] = test system: PC-3; assay: Anticancer activity against human PC3 cells after 48 hrs by MTT assay; type: functional, cell-based; conditions: PC-3, 48 h
[5] = test system: A-431; assay: Anticancer activity against human A431 cells after 48 hrs by MTT assay; type: functional, cell-based; conditions: A-431, 48 h
[6] = test system: A549; assay: Anticancer activity against human A549 cells after 48 hrs by MTT assay; conditions: A549, 48 h
[7] = test system: A549; assay: Induction of apoptosis in human A549 cells assessed as activation of caspase-3 activity at 1 to 2 uM after 48 hrs by ELISA relative to control; type: functional
[8] = test system: A549; assay: Induction of cell cycle arrest in human A549 cells assessed as accumulation at Sub G1 phase at 1 uM after 48 hrs by propidium iodide staining-based flow cytometry (reference value: 0.67 %); type: functional
[9] = test system: A549; assay: Induction of apoptosis in human A549 cells assessed as viable cells at 2 uM after 48 hrs by annexin V-FITC and propidium iodide staining method (RVb = 99.93 %); type: functional; conditions: A549, 48 h, read-out: Activity
[10] = test system: A549; assay: Induction of apoptosis in human A549 cells assessed as oligoneucleosomal DNA fragmentation at 1 to 2 uM after 48 hrs by agarose gel electrophoresis technique; type: functional, cell-based
[11] = test system: A549; assay: Induction of apoptosis in human A549 cells assessed as late apoptotic cells at 1 uM after 48 hrs by annexin V-FITC and propidium iodide staining method (RVb = 0.02 %); type: functional
[12] = test system: A549; assay: Induction of cell cycle arrest in human A549 cells assessed as accumulation at G1 phase at 1 uM after 48 hrs by propidium iodide staining-based flow cytometry (reference value: 76.31 %); type: functional
[13] = test system: A549; assay: Induction of apoptosis in human A549 cells assessed as early apoptotic cells at 2 uM after 48 hrs by annexin V-FITC and propidium iodide staining method (RVb = 0.01 %); type: functional
[14] = test system: A549; assay: Induction of cell cycle arrest in human A549 cells assessed as accumulation at S phase at 2 uM after 48 hrs by propidium iodide staining-based flow cytometry (reference value: 13.31 %); type: functional
[15] = test system: A549; assay: Induction of apoptosis in human A549 cells assessed as viable cells at 1 uM after 48 hrs by annexin V-FITC and propidium iodide staining method (RVb = 99.93 %); type: functional; conditions: A549, 48 h, read-out: Activity
[16] = test system: A549; assay: Induction of cell cycle arrest in human A549 cells assessed as accumulation at G2 phase at 2 uM after 48 hrs by propidium iodide staining-based flow cytometry (reference value: 9.23 %); type: functional
[17] = test system: A549; assay: Induction of cell cycle arrest in human A549 cells assessed as accumulation at G2 phase at 1 uM after 48 hrs by propidium iodide staining-based flow cytometry (reference value: 9.23 %); type: functional
[18] = test system: A549; assay: Induction of cell cycle arrest in human A549 cells assessed as accumulation at S phase at 1 uM after 48 hrs by propidium iodide staining-based flow cytometry (reference value: 13.31 %); type: functional
[19] = test system: A549; assay: Induction of cell cycle arrest in human A549 cells assessed as accumulation at subG1 phase after 48 hrs by propidium iodide staining-based flow cytometry; type: functional
[20] = test system: A549; assay: Induction of apoptosis in human A549 cells assessed as early apoptotic cells at 1 uM after 48 hrs by annexin V-FITC and propidium iodide staining method (RVb = 0.01 %); type: functional
[21] = test system: A549; assay: Induction of cell cycle arrest in human A549 cells assessed as accumulation at Sub G1 phase at 2 uM after 48 hrs by propidium iodide staining-based flow cytometry (reference value: 0.67 %); type: functional
[22] = test system: A549; assay: Induction of apoptosis in human A549 cells assessed as late apoptotic cells at 2 uM after 48 hrs by annexin V-FITC and propidium iodide staining method (RVb = 0.02 %); type: functional
[23] = test system: A549; assay: Induction of apoptosis in human A549 cells assessed as necrotic cells at 1 uM after 48 hrs by annexin V-FITC and propidium iodide staining method (RVb = 0.04 %); type: functional
[24] = test system: A549; assay: Induction of apoptosis in human A549 cells assessed as necrotic cells at 2 uM after 48 hrs by annexin V-FITC and propidium iodide staining method (RVb = 0.04 %); type: functional
[25] = test system: A549; assay: Induction of cell cycle arrest in human A549 cells assessed as accumulation at G1 phase at 2 uM after 48 hrs by propidium iodide staining-based flow cytometry (reference value: 76.31 %); type: functional
[26] = test system: A549; assay: Induction of apoptosis in human A549 cells assessed as nuclear condensation at 2 uM after 48 hrs by Hoechst 33258 staining-based fluorescence microscopy relative to control; type: functional, cell-based
[27] = test system: A549; assay: Induction of cell cycle arrest in human A549 cells assessed as decrease in accumulation at G0/G1 phase after 48 hrs by propidium iodide staining-based flow cytometry; type: functional

ΔTm [1]: 2.8 °C
IC50 [3]: 25.9 µM
IC50 [4]: 36.5 µM
IC50 [5]: 4.46 µM
IC50 [6]: 5.86 µM
Compound: COc1cc2c(cc1OCCCCCn1c(=C(C#N)C#N)c3cccc4cccc1c43)N=C[C@@H]1CCCN1C2=O
Activity [2]: Non-toxic

ΔTm [1]: 3.4 °C
IC50 [3]: 6.1 µM
IC50 [4]: 17.9 µM
IC50 [5]: 4.67 µM
IC50 [6]: 4.86 µM
Compound: COc1cc2c(cc1OCCCn1c(=C(C#N)C#N)c3cccc4cccc1c43)N=C[C@@H]1CCCN1C2=O
Activity [2]: Non-toxic

ΔTm [1]: 5.2 °C
IC50 [3]: 9.76 µM
IC50 [4]: 15.5 µM
IC50 [5]: 3.71 µM
IC50 [6]: 21.9 µM
Compound: COc1cc2c(cc1OCCCCCN1C(=O)c3cccc4cccc1c34)N=C[C@@H]1CCCN1C2=O
Activity [2]: Non-toxic

ΔTm [1]: 2 °C
IC50 [3]: 16.7 µM
IC50 [4]: 19.3 µM
IC50 [5]: 1.25 µM
IC50 [6]: 18.9 µM
Compound: COc1cc2c(cc1OCCCCCCn1c(=C(C#N)C#N)c3cccc4cccc1c43)N=C[C@@H]1CCCN1C2=O
Activity [2]: Non-toxic

ΔTm [1]: 7.6 °C
IC50 [3]: 1.21 µM
IC50 [4]: 1.52 µM
IC50 [5]: 1.72 µM
IC50 [6]: 1.05 µM
Compound: COc1cc2c(cc1OCCCCCCN1c3cccc4cccc(c34)S1(=O)=O)N=C[C@@H]1CCCN1C2=O
fold change (FC) [7]: 4
Activity [8]: 42.83%
viability at 2 µM [9]: 28.8%
Activity [10]: Active
Activity [11]: 24.94%
Activity [12]: 36.77%
Activity [13]: 26.07%
Activity [14]: 9.93%
Activity [2]: Non-toxic
viability at 1 µM [15]: 40.6%
Activity [16]: 0.37%
Activity [17]: 3.75%
Activity [18]: 15.34%
Activity [19]: Dose-dependent effect
Activity [20]: 32.55%
Activity [21]: 66.94%
Activity [22]: 42.4%
Activity [23]: 1.93%
Activity [24]: 2.77%
Activity [25]: 20.48%
Activity [26]: Active
Activity [27]: Dose-dependent effect

ΔTm [1]: 2.7 °C
IC50 [3]: 2.95 µM
IC50 [4]: 14.8 µM
IC50 [5]: 2.5 µM
IC50 [6]: 25.5 µM
Compound: COc1cc2c(cc1OCCCCn1c(=C(C#N)C#N)c3cccc4cccc1c43)N=C[C@@H]1CCCN1C2=O
Activity [2]: Non-toxic

IC50 [3]: 1.69 µM
IC50 [4]: 2.51 µM
IC50 [5]: 0.03 µM
Compound: COc1cccc2c1C(=O)c1c(O)c3c(c(O)c1C2=O)C[C@@](O)(C(=O)CO)C[C@@H]3O[C@H]1C[C@H](N)[C@H](O)[C@H](C)O1 [DOXORUBICIN]

ΔTm [1]: 2.1 °C
IC50 [3]: 14.3 µM
IC50 [4]: 4.89 µM
IC50 [5]: 3.31 µM
IC50 [6]: 32.7 µM
Compound: COc1cc2c(cc1OCCCCCCN1C(=O)c3cccc4cccc1c34)N=C[C@@H]1CCCN1C2=O
Activity [2]: Non-toxic

ΔTm [1]: 5.6 °C
IC50 [3]: 15.1 µM
IC50 [4]: 9.7 µM
IC50 [5]: 4.67 µM
IC50 [6]: 14.4 µM
Compound: COc1cc2c(cc1OCCCCCN1c3cccc4cccc(c34)S1(=O)=O)N=C[C@@H]1CCCN1C2=O
Activity [2]: Non-toxic

ΔTm [1]: 4 °C
IC50 [3]: 3.31 µM
IC50 [4]: 3.23 µM
IC50 [5]: 1.34 µM
IC50 [6]: 9.8 µM
Compound: COc1cc2c(cc1OCCCCN1C(=O)c3cccc4cccc1c34)N=C[C@@H]1CCCN1C2=O
Activity [2]: Non-toxic

ΔTm [1]: 4.9 °C
IC50 [3]: 7.66 µM
IC50 [4]: 9.8 µM
IC50 [5]: 9.56 µM
IC50 [6]: 10 µM
Compound: COc1cc2c(cc1OCCCN1c3cccc4cccc(c34)S1(=O)=O)N=C[C@@H]1CCCN1C2=O
Activity [2]: Non-toxic

ΔTm [1]: 3.2 °C
IC50 [3]: 8.65 µM
IC50 [4]: 7.67 µM
IC50 [5]: 3.04 µM
IC50 [6]: 13.8 µM
Compound: COc1cc2c(cc1OCCCN1C(=O)c3cccc4cccc1c34)N=C[C@@H]1CCCN1C2=O
Activity [2]: Non-toxic

Compound: COc1cc2c(cc1O)N=C[C@@H]1CCCN1C2=O
Activity [8]: 10.15%
ΔTm [1]: 0.7 °C
Activity [11]: 17.73%
Activity [12]: 40.78%
viability at 1 µM [15]: 41.2%
Activity [17]: 8.57%
Activity [18]: 38.93%
IC50 [3]: 0.86 µM
IC50 [4]: 1.19 µM
IC50 [5]: 1.65 µM
Activity [20]: 39.1%
Activity [23]: 1.91%
Activity [26]: Active
IC50 [6]: 1.11 µM

ΔTm [1]: 3.9 °C
IC50 [3]: 3.71 µM
IC50 [4]: 14.9 µM
IC50 [5]: 3.34 µM
IC50 [6]: 19.6 µM
Compound: COc1cc2c(cc1OCCCCN1c3cccc4cccc(c34)S1(=O)=O)N=C[C@@H]1CCCN1C2=O
Activity [2]: Non-toxic
